≈ marks a conversion by molar mass, not a printed value.
What was measured:
[1] = test system: human cervical cancer (HeLa) cells; experiment: MTT cytotoxicity assay, HeLa cells; type: cell-based; conditions: means ± SD (n = 3); for IC50: Homo sapiens, HeLa, read-out: IC50 (μg/mL) HeLa
Procedure: (§1) Human hepatoma (HepG2), human cervical cancer (HeLa), human leukemia (K562) and human liver (HL-7702) cells were obtained by Shanghai Institute of Biochemistry and Cell Biology, and maintained in the logarithmic phase of growth in RPMI-1640 complete medium supplemented with 2 mM L-glutamine (Sigma Chemical Co., Saint Louis, MO, USA), 100 IU/mL penicillin, 100 μg/mL streptomycin and 10% FCS at 37 °C under humidified air with 5% CO2.
(§2) The effect of compounds 1–13 on the viability of HepG2, HeLa, K562 and HL-7702 cells was determined by MIT assay as described previously. Briefly, the tumor and normal cells were seeded at 1 × 10^4 cells/well in a 96-well microtiter plate and incubated at 37 °C in a humidified atmosphere with 5% CO2. After 24 h, compounds 1–13, the positive drug CDDP or RPMI-1640 medium were added into each well, and the plates were incubated at 37 °C for the indicated time. Each concentration was repeated four wells. 50 μL of MTT solution (2 mg/mL) was added to each well 4 h before incubation end, and incubated further for 4 h. The plates were centrifuged (1400× g, 5 min) and the untransformed MTT was removed carefully by pipetting. To each well, 150 μL of DMSO was added and the absorbance was evaluated in an ELISA reader at 570 nm after 15 min. The inhibitory rates and 50% inhibitory concentrations (IC50) values towards cell viability were calculated by NDST software. Each test was performed in triplicate.

[2] = test system: human leukemia (K562) cells; experiment: MTT cytotoxicity assay, K562 cells; type: cell-based; conditions: for IC50 (μg/mL) K562: means ± SD (n = 3); for IC50: Homo sapiens, K562, means ± SD (n = 3), read-out: IC50 (μg/mL) K562
Procedure: as §1, §2

[3] = test system: human hepatoma (HepG2) cells; experiment: MTT cytotoxicity assay, HepG2 cells; type: cell-based; conditions: for IC50 (μg/mL) HepG2: means ± SD (n = 3); for IC50: Homo sapiens, HepG2, means ± SD (n = 3), read-out: IC50 (μg/mL) HepG2
Procedure: as §1, §2

[4] = test system: human liver (HL-7702) cells; experiment: MTT cytotoxicity assay, normal HL-7702 cells; type: cell-based; conditions: for IC50 (μg/mL) HL-7702 / IC50: MTT assay, normal hepatocytes, means ± SD (n = 3); for Ratio (HL-7702/HepG2): ratio of IC50 values against HL-7702 and HepG2 cells, selective cytotoxicity; for IC50: Homo sapiens, L02, read-out: IC50 (μg/mL) HL-7702
Procedure: as §1, §2

[5] = test system: human gastric cancer MKN-45 cells; conditions: read-out: IC50 against MKN-45 cells; cited from earlier work
HeLa cells = test system: HeLa cells; design: method as in PMID 18288810; conditions: cited from earlier work

| Compound | IC50 (μg/mL) HeLa [1] | IC50 (μg/mL) K562 [2] | IC50 (μg/mL) HepG2 [3] | IC50 (μg/mL) HL-7702 [4] | Ratio (HL-7702/HepG2) [4] | IC50 [5] | Ratio (HL-7702/HepG2) ([4]; listed as 10) | IC50 [1] | IC50 [2] | IC50 [3] | IC50 [4] | IC50 against HeLa cells (HeLa cells) |
| --- | --- | --- | --- | --- | --- | --- | --- | --- | --- | --- | --- | --- |
| 24-Dehydro frondoside A6 [24-Dehydro frondoside A6 (13)] | 3.16 ± 0.34 µg/mL | 5.61 ± 1.05 µg/mL | 3.57 ± 0.54 µg/mL | 7.55 ± 0.83 µg/mL | 2.12 | – | – | – | – | – | – | – |
| CO[C@@H]1[C@@H](O)[C@H](O[C@@H]2[C@@H](O)[C@H](O[C@H]3[C@H](O)[C@@H](O)[C@H](O[C@H]4[C@H](O[C@H]5CC[C@]6(C)C7=C[C@H](O)C89C(=O)O[C@@](C)(CCC=C(C)C)[C@@]8(O)CC[C@@]9(C)C7CCC6C5(C)C)OC[C@@H](OS(=O)(=O)[O-])[C@@H]4O)O[C@@H]3C)O[C@H](CO)[C@H]2O)O[C@H](CO)[C@H]1O.[Na+] (stereo partly drawn) [24-Dehydro echinoside A (2), 24-Dehydro echinoside A] | 2.06 ± 0.27 µg/mL | 6.15 ± 0.24 µg/mL | 1.95 ± 0.09 µg/mL | 3.75 ± 0.40 µg/mL | 1.92 | 1600 nM | – | – | – | – | – | – |
| N.N.[Cl][Pt][Cl] [CDDP, cis-diamminedichloroplatinum, reference compound] | 3.41 ± 0.37 µg/mL | 2.99 ± 0.24 µg/mL | 2.05 ± 0.13 µg/mL | 4.48 ± 0.41 µg/mL | 2.18 | – | – | – | – | – | – | – |
| CO[C@@H]1[C@@H](O)[C@H](CO)O[C@@H](O[C@H]2[C@@H](O)[C@@H](O[C@H]3[C@@H](O)[C@@H](O[C@H]4OC[C@@H](O)[C@@H](O)[C@@H]4O)[C@H](O[C@H]4[C@H](O[C@H]5CC[C@@]6(C)[C@H](CC=C7[C@@H]6CC[C@]68C(=O)O[C@](C)(CCCC(C)C)[C@H]6[C@H](OC(C)=O)C[C@@]78C)C5(C)C)OC[C@@H](OS(=O)(=O)O)[C@H]4O)O[C@@H]3C)OC[C@@H]2O)[C@@H]1O [Frondoside A1 (10), Frondoside A1] | 2.03 ± 0.17 µg/mL (≈ 1.55 µM) | 2.21 ± 0.56 µg/mL (≈ 1.68 µM) | 1.91 ± 0.03 µg/mL (≈ 1.45 µM) | 4.96 ± 1.10 µg/mL (≈ 3.78 µM) | 2.60 | – | more than 2 | – | – | – | – | – |
| CO[C@@H]1[C@@H](O)[C@H](O[C@@H]2[C@@H](O)[C@H](O[C@H]3[C@H](O)[C@@H](O[C@@H]4OC[C@@H](O)[C@H](O)[C@H]4O)[C@H](O[C@H]4[C@H](OC5CC[C@]6(C)[C@H]7CCC89C(=O)O[C@@](C)(CCCC(C)C)C8[C@@H](OC(C)=O)C[C@@]9(C)C7=CC[C@H]6C5(C)C)OC[C@@H](OS(=O)(=O)O)[C@@H]4O)O[C@@H]3C)OC[C@H]2O)O[C@H](CO)[C@H]1O (stereo partly drawn) [Frondoside A (11), Frondoside A] | – | – | – | – | 1.31 | – | – | 3.3 ± 0.05 µg/mL (≈ 2.51 µM) | 3.76 ± 0.05 µg/mL (≈ 2.86 µM) | 4.14 ± 0.57 µg/mL (≈ 3.15 µM) | 5.42 ± 0.98 µg/mL (≈ 4.13 µM) | – |
| CO[C@@H]1[C@@H](O)[C@H](O[C@@H]2[C@@H](O)[C@H](O[C@H]3[C@H](O)[C@@H](O)[C@H](O[C@H]4[C@H](O[C@H]5CC[C@]6(C)C7=C[C@H](O)[C@]89C(=O)O[C@@](C)(C(O)CCC(C)C)[C@@]8(O)CC[C@@]9(C)[C@@H]7CC[C@H]6C5(C)C)OC[C@@H](OS(=O)(=O)[O-])[C@@H]4O)O[C@@H]3C)O[C@H](CO)[C@H]2O)O[C@H](CO)[C@H]1O.[Na+] (stereo partly drawn) [Holothurin A1 (7), Holothurin A1] | 2.84 ± 0.09 µg/mL | 6.50 ± 0.01 µg/mL | 2.90 ± 0.21 µg/mL | 3.59 ± 0.05 µg/mL | 1.24 | – | – | – | – | – | – | – |
| CO[C@@H]1[C@@H](O)[C@H](O[C@@H]2[C@@H](O)[C@H](O[C@H]3[C@H](O)[C@@H](O)[C@H](O[C@H]4[C@H](O[C@H]5CC[C@]6(C)C7=C[C@H](O)[C@@]89C(=O)O[C@@](C)(C%10CCC(C)(C)O%10)[C@@]8(O)CC[C@@]9(C)[C@@H]7CC[C@H]6C5(C)C)OC[C@@H](OS(=O)(=O)O)[C@@H]4O)O[C@@H]3C)O[C@H](CO)[C@H]2O)O[C@H](CO)[C@H]1O (stereo partly drawn) [Holothurin A (6), Holothurin A] | – | – | – | – | 1.11 | 2370 nM | – | 3.76 ± 0.47 µg/mL (≈ 3.14 µM) | 8.94 ± 0.01 µg/mL (≈ 7.45 µM) | 3.46 ± 0.33 µg/mL (≈ 2.88 µM) | 3.85 ± 0.32 µg/mL (≈ 3.21 µM) | – |
| C[C@H]1O[C@@H](O[C@H]2[C@H](O[C@H]3CC[C@]4(C)C5=C[C@H](O)C67C(=O)O[C@@](C)(C8CCC(C)(C)O8)[C@@]6(O)CC[C@@]7(C)[C@@H]5CCC4C3(C)C)OC[C@@H](OS(=O)(=O)[O-])[C@@H]2O)[C@H](O)[C@@H](O)[C@@H]1O.[Na+] (stereo partly drawn) [Holothurin B (3), Holothurin B] | 2.05 ± 0.11 µg/mL | 3.64 ± 0.04 µg/mL | 1.79 ± 0.02 µg/mL | 2.69 ± 0.45 µg/mL | 1.50 | 1590 nM | – | – | – | – | – | – |
| CC(C)CCC[C@]1(C)OC(=O)C23[C@@H](O)C=C4[C@@H](CC[C@H]5C(C)(C)C(O[C@@H]6OC[C@@H](OS(=O)(=O)O)[C@H](O)[C@H]6O[C@@H]6O[C@H](C)[C@@H](O)[C@H](O)[C@H]6O)CC[C@]45C)[C@]2(C)CC[C@@]31O (stereo partly drawn) [echinoside B, reference compound] | – | – | – | – | – | 180 nM | – | – | – | – | – | – |
| Frondoside A6 [Frondoside A6 (12)] | 3.75 ± 0.51 µg/mL | 6.59 ± 0.11 µg/mL | 2.53 ± 0.66 µg/mL | 6.05 ± 0.67 µg/mL | 2.39 | – | – | – | – | – | – | – |
| HS-1 [HS-1 (5)] | 3.20 ± 0.32 µg/mL | 12.95 ± 1.54 µg/mL | 6.10 ± 0.33 µg/mL | 7.19 ± 0.20 µg/mL | 1.18 | – | – | – | – | – | – | – |
| Holothurin B4 [Holothurin B4 (4)] | 2.71 ± 0.54 µg/mL | 3.55 ± 0.53 µg/mL | 2.71 ± 0.12 µg/mL | 4.58 ± 0.54 µg/mL | 1.69 | – | – | – | – | – | – | – |
| Scabraside B [Scabraside B (9)] | 4.44 ± 0.85 µg/mL | 11.85 ± 2.26 µg/mL | 7.29 ± 0.62 µg/mL | 11.03 ± 1.37 µg/mL | 1.51 | – | – | – | – | – | – | – |
| Scabraside D [Scabraside D (8)] | 3.84 ± 0.42 µg/mL | 10.06 ± 1.06 µg/mL | 3.33 ± 0.33 µg/mL | 4.40 ± 0.22 µg/mL | 1.32 | – | – | – | – | – | – | – |
| okhotosides B2 | – | – | – | – | – | – | – | – | – | – | – | 13.0 µg/mL |
| okhotosides B3 | – | – | – | – | – | – | – | – | – | – | – | 17.8 µg/mL |

— paper PMC4145316, “Cytotoxic and Apoptosis-Inducing Activity of Triterpene Glycosides from Holothuria scabra and Cucumaria frondosa against HepG2 Cells” (Marine Drugs, 2014)
